How the values were obtained:
Test in all cases: relative viability (nuclei count vs DMSO), 5 days (fraction); higher = more cells survive
Temozolomide + Foretinib = compound: Cn1nnc2c(C(N)=O)ncn2c1=O [Temozolomide] + COc1cc2c(Oc3ccc(NC(=O)C4(C(=O)Nc5ccc(F)cc5)CC4)cc3F)ccnc2cc1OCCCN1CCOCC1 [Foretinib] (partner 0.25 µM)
Outline: (§1)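 Five library-drug doses in √10 steps were combined with a fixed anchor-drug dose, or a single drug was given alone, by pin tool to lung cancer cell lines in 1536-well plates the day after seeding. Nuclei were stained and counted after 5 days. Relative viability is the nuclei count in treated wells over that in vehicle wells, taken as the median of duplicate plates.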

Temozolomide + Lapatinib = compound: Cn1nnc2c(C(N)=O)ncn2c1=O [Temozolomide] + CS(=O)(=O)CCNCc1ccc(-c2ccc3ncnc(Nc4ccc(OCc5cccc(F)c5)c(Cl)c4)c3c2)o1 [Lapatinib] (partner 2 µM)
Outline: as §1

[1] = compound: Cn1nnc2c(C(N)=O)ncn2c1=O [Temozolomide] + CS(=O)(=O)N1CCN(Cc2cc3nc(-c4cccc5[nH]ncc45)nc(N4CCOCC4)c3s2)CC1 [Pictilisib] (partner 1 µM)
Outline: as §1

Temozolomide + Alpelisib = compound: Cn1nnc2c(C(N)=O)ncn2c1=O [Temozolomide] + Cc1nc(NC(=O)N2CCC[C@H]2C(N)=O)sc1-c1ccnc(C(C)(C)C(F)(F)F)c1 [Alpelisib] (partner 2 µM)
Outline: as §1

## NCI-H1703
Temozolomide + Foretinib; first compound 0.2 µM
  relative viability: 0.297
Temozolomide + Foretinib; first compound 0.6325 µM
  relative viability: 0.35
Temozolomide + Foretinib; first compound 2 µM
  relative viability: 0.401
Temozolomide + Foretinib; first compound 6.325 µM
  relative viability: 0.281
Temozolomide + Foretinib; first compound 20 µM
  relative viability: 0.374
Temozolomide + Lapatinib; first compound 0.2 µM
  relative viability: 1.39
Temozolomide + Lapatinib; first compound 0.6325 µM
  relative viability: 1.08
Temozolomide + Lapatinib; first compound 2 µM
  relative viability: 1.59
Temozolomide + Lapatinib; first compound 6.325 µM
  relative viability: 0.972
Temozolomide + Lapatinib; first compound 20 µM
  relative viability: 1.21
[1]; first compound 0.2 µM
  relative viability: 0.249
[1]; first compound 0.6325 µM
  relative viability: 0.255
[1]; first compound 2 µM
  relative viability: 0.301
[1]; first compound 20 µM
  relative viability: 0.272
Temozolomide + Alpelisib; first compound 0.2 µM
  relative viability: 0.367
Temozolomide + Alpelisib; first compound 0.6325 µM
  relative viability: 0.344
Temozolomide + Alpelisib; first compound 2 µM
  relative viability: 0.463
Temozolomide + Alpelisib; first compound 6.325 µM
  relative viability: 0.288
Temozolomide + Alpelisib; first compound 20 µM
  relative viability: 0.315

Reference: the supplement of paper PMC10307832
